Test system: GBS laboratory strains
Test: Penicillin induced lysis (OD600 change)
Assay type: cell-based, Group B Streptococcus
Settings: 100×MIC90 Penicillin G 22 hours
Description: In this series of study, the three GBS laboratory strains (i.e., A909, NEM316, and O90R) were cultured for 18 hours at 37° C. in THB. Subcultures in THB were subsequently grown to exponential phase (OD600˜0.3) at 37° C. Cells were treated with 100×MIC90 Penicillin G for an additional 22 hours. OD600 of these cell cultures before (O.D. initial) and after penicillin treatment (O.D. experimental) was measured (N=3). The values of O.D. experimental were subtracted from O.D. initial. (See FIG. 2).
(I) Bacterial Strains and Culture Conditions. GBS strains A909 (serotype IA), 515 (serotype IA), NEM316 (serotype III), COHI (serotype III), 2603V/R (serotype V) and O90R (non-typable) were used in this study. E. coli Top10 cells were used for the recombination experiments. GBS was cultured in Todd Hewitt broth (THB) or Tryptic Soy 5% sheep blood (TS) media and E. coli in Luria-broth (LB) medium or agar. Antibiotics were used at the following concentrations: for GBS—penicillin G (MIC90 0.06 μg ml^−1), ampicillin (MIC90 0.12 μg ml^−1), vancomycin (MIC90 2 μg ml^−1), cefazolin (MIC90 1 μg ml^−1) and chloramphenicol (5 μg ml^−1); for E. coli—ampicillin (50 μg ml^−1) and chloramphenicol (5 μg ml^−1). Both GBS and E. coli cultures were grown at 37° C. (II) Tolerance Using the MBC:MIC Ratio Method. Three GBS laboratory strains (i.e., A909, NEM316, and O90R) were cultured overnight for 18 h at 37° C. in THB. Subcultures in THB were subsequently grown to exponential phase (OD600˜0.3; i.e. 5×10^5 cfu/ml) at 37° C. Cell cultures were then exposed to different concentrations of antibiotics (Penicillin G, Ampicillin, Cefozolin or Vancomycin). […] Cell cultures were allowed to re-grow for an additional 24 h at 37° C. before the OD600 was measured. […] The initial (in.) cellular ATP concentration ([ATP]) was measured using the ENLITEN (Promega) luciferase based reaction kit. […] The experimental (exp.) cellular ATP was extracted and the concentration was measured as stated above. […]

`CC1(C)S[C@@H]2[C@H](NC(=O)Cc3ccccc3)C(=O)N2[C@H]1C(=O)O` [Penicillin G] was tested, and the “change in OD600 (lysis, FIG. 2)” value (GBS strain A909) was “decrease in OD”, the “change in OD600 (lysis, FIG. 2)” value (GBS strain NEM316) was “did not” and the “change in OD600 (lysis, FIG. 2)” value (GBS strain O90R) was “did not”.

Reference: patent US8247170B2, “Detection of penicillin tolerance in Group B Streptococcus: single nucleotide polymorphisms in penicillin binding protein 4” (priority 2008, dated 2012)
